Results as given in patent publication US9328093B2, “Selective inhibitors of ubiquitin specific protease 7, the pharmaceutical compositions thereof and their therapeutic applications” (HYBRIGENICS SA, priority 2010, dated 2016).

Key:
[1] = molecular target: T1, UCH-L1 (Homo sapiens, UniProt P09936); test: UCH-L1 activity assay (Ub-AMC substrate); assay type: biochemical; details: Ub-AMC 300 nM, UCH-L1 2.5 nM
T1 sequence (P09936 1-223): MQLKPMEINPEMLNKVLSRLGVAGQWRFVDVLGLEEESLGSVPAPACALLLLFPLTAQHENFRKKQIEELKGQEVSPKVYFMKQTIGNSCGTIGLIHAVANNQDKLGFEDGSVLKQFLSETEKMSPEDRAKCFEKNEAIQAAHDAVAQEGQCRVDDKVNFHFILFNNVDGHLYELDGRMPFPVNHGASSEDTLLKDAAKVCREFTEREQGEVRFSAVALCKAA
Description: UCH-L1 was diluted in USP buffer (50 mM Tris HCl; 0.5 mM EDTA; 5 mM DTT; 0.01% Triton X-100; Bovine Serum Albumin 0.05 mg·ml^−1 pH7.6). Compounds stocks (100 mM) were stored at −20° C. in DMSO. Compounds were tested at different concentrations: from 200 μM to 91 nM.
(§1) Reactions were performed as duplicates in Black 384 well plates (small volume microplates; Greiner; 10 μl final reaction volume). The substrate concentration for UCH-L1 was 300 nM Ub-AMC (Boston Biochem). The concentration of the enzyme (UCH-L1) in specificity assays was 2.5 nM. The concentrations were determined in order to perform specificity assays under initial velocities at fixed substrate concentration. Compounds were pre-incubated with enzymes for 30 minutes at 25° C. Reactions were initiated by addition of substrate to the plates containing the enzymes (+/− compounds) diluted in assay buffer. Reactions were incubated for 60 minutes at 37° C. Reactions were stopped by adding acetic acid (100 mM final). Readings were performed on a Pherastar Fluorescent Reader (BMG). λ Emission 380 nm; λ Excitation=460 nm. Data (mean values +/− standard deviation) were analyzed as % of control (no compound) and plotted as percentage versus the Log of the compound concentration using GraphPad (Prism). Data were fitted to a sigmoidal model (variable slope).

[2] = molecular target: T2, Caspase 3 (Homo sapiens, UniProt P42574); test: Caspase 3 activity assay (Ac-DEVD-AMC substrate); assay type: biochemical; details: Ac-DEVD-AMC 250 nM, Caspase 3 1.6 nM
T2 sequence (P42574 29-175 limits assumed): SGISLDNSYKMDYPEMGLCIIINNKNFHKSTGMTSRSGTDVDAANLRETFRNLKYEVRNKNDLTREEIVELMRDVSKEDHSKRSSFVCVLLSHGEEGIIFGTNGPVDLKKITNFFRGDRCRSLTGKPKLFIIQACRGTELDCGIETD
T2 sequence (P42574 176-277 limits assumed): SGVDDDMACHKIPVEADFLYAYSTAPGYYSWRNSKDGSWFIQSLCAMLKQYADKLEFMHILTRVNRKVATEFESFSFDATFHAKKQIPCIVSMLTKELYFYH
Description: Caspase 3 was diluted in Caspase 3 buffer (100 mM Hepes pH 7.5; 10% sucrose; 0.1% CHAPS). Compounds stocks (100 mM) were stored at −20° C. in DMSO. Compounds were tested at different concentrations: from 200 μM to 91 nM.
as §1, with “caspase 3 specificity assay” for “UCH-L1”, “250” for “300”, “(Ac-DEVD-AMC; Promega).” for “Ub-AMC (Boston Biochem).”, “(Caspase 3)” for “(UCH-L1)”, “1.6” for “2.5”, “values+/−” for “values +/−”

`CN1CCCC1CCNC(=O)c1ccc2c(Cl)c3c(nc2c1)CCCC3` (stereo not drawn) [Example 17, 9-chloro-N-(2-(1-methylpyrrolidin-2-yl)ethyl)-5,6,7,8-tetrahydroacridino-3-carboxamide] was tested, and the IC50 [1] was > 200 µM and the IC50 [2] was > 200 µM.

For `O=C(NCc1cccc(CN2CCCC2)c1)c1ccc2c(Cl)c3c(nc2c1)CCCC3` [Example 18, 9-chloro-N-(3-(pyrrolidin-1-ylmethyl)benzyl)-5,6,7,8-tetrahydroacridine-3-carboxamide], the IC50 [1] was > 200 µM and the IC50 [2] was > 200 µM.

For `O=C(Nc1cccc(CN2CCCC2)c1)c1ccc2c(Cl)c3c(nc2c1)CCCC3` [Example 19, 9-chloro-N-(3-(pyrrolidin-1-ylmethyl)phenyl)-5.6,7,8-tetrahydroacridine-3-carboxamide], the IC50 [1] was > 200 µM and the IC50 [2] was > 200 µM.

In the case of `CC1CCCCN1CCCNC(=O)c1ccc2c(Cl)c3c(nc2c1)CCCC3` (stereo not drawn) [Example 20, 9-chloro-N-(3-(2-methylpiperidin-1-yl)propyl)-516,7,8-tetrahydroacridine-3-carboxamide], the IC50 [1] is reported as > 200 µM and the IC50 [2] is reported as > 200 µM.

For `O=C(NCc1ccc(CN2CCCC2)cc1)c1ccc2c(Cl)c3c(nc2c1)CCCC3` [Example 21, 9-chloro-N-(4-(pyrrolidin-1-ylmethyl)benzyl)-5,6,7,8-tetrahydroacridine-3-carboxamide], the IC50 [1] was > 200 µM and the IC50 [2] was > 200 µM.

`COc1ccc(CN2CCC(CNC(=O)c3ccc4c(Cl)c5c(nc4c3)CCCC5)CC2)cc1` [Example 22, 9-chloro-N-((1-(4-methoxybenzyl)piperidin-4-yl)methyl)-5,6,7,8-tetrahydroacridine-3-carboxamide] was tested, and the IC50 [1] was > 200 µM and the IC50 [2] was > 200 µM.

For `CN(C)c1ccc(CN2CCC(CNC(=O)c3ccc4c(Cl)c5c(nc4c3)CCCC5)CC2)cc1` [Example 23], the IC50 [1] was > 200 µM and the IC50 [2] was > 200 µM.

`O=C(NCC1CCNCC1)c1ccc2c(Cl)c3c(nc2c1)CCCC3` [Example 24, 9-chloro-N-((piperidin-4-yl)methyl)-5,6,7,8-tetrahydroacridine-3-carboxamide] was tested, and the IC50 [1] was > 200 µM and the IC50 [2] was > 200 µM.

For `O=C(NCC(CN1CCCC1)C(O)c1ccccc1)c1ccc2c(Cl)c3c(nc2c1)CCCC3` (stereo not drawn) [Example 25, 9-chloro-N-(3-hydroxy-3-phenyl-2-pyrrolidin-1-ylmethylpropyl)-5,6,7,8-tetrahydroacridine-3-carboxamide], the IC50 [1] was > 200 µM and the IC50 [2] was > 200 µM.
